The values below come from ChEMBL document CHEMBL1132641, “Structure-activity relationships for a class of inhibitors of purine nucleoside phosphorylase” (J Med Chem, 1999).

By IC50 is commonly meant the concentration at which inhibition is half-maximal. Low values mean greater potency in that assay, high ones weaker potency in that assay. A word on the Ki: it is a measure of affinity in units of concentration, obtained from inhibition or displacement. A low value points to tighter binding.

Assay in all cases: biochemical
The target in assay [1] is T1, Purine nucleoside phosphorylase (Bos taurus, UniProt P55859).
T1 sequence (P55859 whole entry): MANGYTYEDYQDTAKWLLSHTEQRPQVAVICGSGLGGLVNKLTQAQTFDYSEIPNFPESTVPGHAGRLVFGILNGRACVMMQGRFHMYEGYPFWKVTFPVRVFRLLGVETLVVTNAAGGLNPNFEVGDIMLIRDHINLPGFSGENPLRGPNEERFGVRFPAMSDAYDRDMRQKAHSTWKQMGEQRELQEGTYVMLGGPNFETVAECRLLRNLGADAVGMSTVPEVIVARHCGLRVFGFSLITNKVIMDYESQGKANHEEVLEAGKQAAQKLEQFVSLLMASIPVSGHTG
Description: (§1) Inhibitory activity against calf spleen purine nucleoside phosphorylase (PNP) using inosine as substrate at a concentration of 10 uM.

For assay [2], the target named is T1, Purine nucleoside phosphorylase. The source holds these as a separate data set.
Description: as §1
Assay [3] has the same target. The source holds these as a separate data set.
Description: Inhibitory activity against calf spleen purine nucleoside phosphorylase (PNP) using 2-amino-6-mercapto-7-methyl purine ribonucleoside (MESG) as substrate.

Take `Nc1nc(O)c2nc(N)n(Cc3cccs3)c2n1`: in assay [1], the IC50 worked out at 69.4 nM. The Ki in assay [2] came out at 35.7 nM; in assay [3] it was 20.7 nM.

Take `Nc1nc(O)c2[nH]c(N)c(CC3CCCCC3)c2n1`: the IC50 in assay [1] stood at 1470 nM. Besides, the Ki is 885 nM in assay [2] and 766 nM in assay [3].

In the case of `Nc1nc(O)c2[nH]cc(C3=CCCCC3)c2n1`, the IC50 in assay [1] is 1970 nM. Further, the Ki in assay [2] is 862 nM; in assay [3], 500 nM.

The compound `Nc1nc2c(Cc3ccccc3O)c[nH]c2c(=O)[nH]1` yielded an IC50 in assay [1] of 182 nM. Further, the results for the Ki in assay [2] and in assay [3] were 84 nM and 31.8 nM, respectively.

`Nc1nc2c(Cc3cccc(Cl)c3)c[nH]c2c(=O)[nH]1`: the IC50 in assay [1] is 25.8 nM. Besides, the inhibition constant Ki in assay [2] turned out to be 18.9 nM; in assay [3], 4.3 nM.

As to `Cc1nc2c(O)[nH]c(N)nc-2c1Cc1ccccc1`, in assay [1], the IC50 is 20200 nM. Also, the values for the Ki in assay [2] and in assay [3] were 10300 nM and 67500 nM, respectively.

For the compound `Nc1nc2c(Cc3ccccn3)c[nH]c2c(=O)[nH]1`, the IC50 in assay [1] is 15.3 nM.

With `Oc1ncn(Cc2ccccc2)c2ncnc1-2`, in assay [1], inhibition was half-maximal at 49600 nM (IC50). In assay [2], this compound returned a Ki of 24600 nM.

`Nc1nc(O)c2[nH]cc(C3CCCCC3)c2n1`: it took 640 nM to reach half-maximal inhibition in assay [1] (IC50). The Ki came to 335 nM in assay [2] and 333 nM in assay [3].

Compound `Nc1nc2c(CC3CCCS3)c[nH]c2c(=O)[nH]1` (centres undefined) gave an IC50 in assay [1] of 17.4 nM. Moreover, the Ki in assay [2] is 8.5 nM; in assay [3], 6 nM.

In turn, `CC1CCCC(Cc2c[nH]c3c(=O)[nH]c(N)nc23)C1` (centres undefined) returned an IC50 in assay [1] of 19.2 nM. Moreover, the Ki in assay [2] worked out at 11.4 nM; in assay [3], 3.3 nM.

As to `Nc1nc2c(CC3CCCC3)c[nH]c2c(=O)[nH]1`, in assay [1], the IC50 was 20.2 nM. Moreover, the Ki was determined as 9.1 nM in assay [2] and 6.2 nM in assay [3].

Take `Nc1nc2c(Cc3cnccc3Cl)c[nH]c2c(=O)[nH]1`: half-maximal inhibition in assay [1] (IC50) required 135 nM. Besides, the Ki came to 66.7 nM in assay [2] and 35.6 nM in assay [3].

`Nc1nc(O)c2[nH]cc(C(CC(=O)O)c3ccccc3)c2n1` (centres undefined) gave an IC50 in assay [1] of 46.8 nM. Also, the figures for the Ki in assay [2] and in assay [3] were 9 nM and 61 nM, respectively.

For `Nc1nc2c(Cc3ccc(-c4ccccc4)cc3)c[nH]c2c(=O)[nH]1`, in assay [1], the IC50 is 546 nM. In other words, the sub-micromolar range.

In turn, `Nc1nc(O)c2[nH]cc(Cc3ccsc3)c2n1` gave an IC50 in assay [1] of 22.6 nM. The Ki stood at 15.6 nM in assay [2] and 3.5 nM in assay [3].

For the compound `Nc1nc2c(Cc3ccncc3)c[nH]c2c(=O)[nH]1`, the 50% inhibitory concentration (IC50) in assay [1] is 63.5 nM. The Ki in assay [2] came to 25.4 nM; in assay [3], 16.9 nM.

In turn, `Oc1[nH]cnc2c(Cc3ccccc3)cnc1-2` displayed an IC50 in assay [1] of 24.5 nM. In addition, the figures for the Ki in assay [2] and in assay [3] were 18.7 nM and 5.4 nM, respectively.

Consider `Nc1nc(O)c2[nH]cc(Oc3ccccc3)c2n1`, for which, in assay [1], the midpoint of inhibition, the IC50, lay at 41.5 nM.

Regarding `Nc1nc(O)c2[nH]cc(Cc3ccc(O)cc3)c2n1`, the IC50 in assay [1] was found to be 239 nM. Besides, the Ki in assay [2] stood at 109 nM; in assay [3], 35 nM.

Turning to `N#CCC(c1cccc(Cl)c1)c1c[nH]c2c(=O)[nH]c(N)nc12` (centres undefined), in assay [1], the IC50 is 16.3 nM. Moreover, the affinity in assay [3], expressed as Ki, was 4.6 nM.

With `Nc1nc(O)c2[nH]cc(Cc3ccccc3Cl)c2n1`, the IC50 in assay [1] was determined as 103 nM. Further, the Ki in assay [2] was 65 nM; in assay [3], 14.4 nM.

`CC(C)c1ccc(Cc2c[nH]c3c(=O)[nH]c(N)nc23)cc1` gave an IC50 in assay [1] of 96.6 nM.

In turn, `Nc1nc2c(Cc3ccc(OCc4ccccc4)cc3)c[nH]c2c(=O)[nH]1` yielded an IC50 in assay [1] of 124 nM. Also, the inhibitory constant (Ki) in assay [2] was determined as 37.8 nM; in assay [3], 20.3 nM.

On to `N#CCC(c1cccnc1)c1cnc2c(O)[nH]cnc1-2` (centres undefined), for which the IC50 in assay [1] came out at 38.9 nM.

As to `Nc1nc2[nH]c(N)nc2c(=O)[nH]1` [8-AMINOGUANINE], the IC50 in assay [1] came out at 2300 nM. In addition, the Ki amounted to 982 nM in assay [2] and 681 nM in assay [3].

`Nc1nc2c(Cc3cccnc3)c[nH]c2c(=O)[nH]1` [PELDESINE] had an IC50 in assay [1] of 27 nM. The Ki in assay [2] was 13.5 nM; in assay [3], 3.1 nM.
